# Experimental data as given in the NIST ThermoML archive (doi:10.1021/acs.jced.7b00782).
# Numbers after ± are expanded uncertainties.
# Settings: Closed cell (Static) method
Structure (SMILES),"vapor or sublimation pressure (135.8 K, Liquid) [kPa]","vapor or sublimation pressure (146.22 K, Liquid) [kPa]","vapor or sublimation pressure (105.89 K, Liquid) [kPa]","vapor or sublimation pressure (127.32 K, Liquid) [kPa]","vapor or sublimation pressure (105.89 K, Crystal) [kPa]"
[Ar] [argon],2605.6 ± 58,4028.9 ± 58,,,
[C-]#[O+] [carbon monoxide],,,830 ± 40,2682 ± 40,
[N]=O [nitrogen oxide (NO)],410.9 ± 26,987.8 ± 30,,188.3 ± 23,13.6 ± 20
